Data from patent US20260132123A1, “ABAD INHIBITOR COMPOUNDS” (UNIVERSITY COURT OF THE UNIVERSITY OF ST ANDREWS, priority 2021, published 2026).

Target: T1, 17β-HSD10 (Homo sapiens, UniProt Q99714)
T1 construct: Histev (histidine tag with TEV site) (N, cleaved yes); made in house; host or cells: E. coli BL21-CodonPlus
T1 sequence (Q99714 1-261): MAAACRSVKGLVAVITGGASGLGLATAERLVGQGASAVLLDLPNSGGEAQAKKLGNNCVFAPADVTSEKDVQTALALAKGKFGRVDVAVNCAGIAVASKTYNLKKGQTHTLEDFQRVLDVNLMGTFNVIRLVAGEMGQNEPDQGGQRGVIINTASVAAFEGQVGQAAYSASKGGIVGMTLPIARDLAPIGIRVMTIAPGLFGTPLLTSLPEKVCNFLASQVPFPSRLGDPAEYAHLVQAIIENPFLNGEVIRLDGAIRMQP
Assay: 17β-HSD10 (ABAD) enzyme inhibition assay, NADH oxidation read at 340 nm (primary screen and dose response)
Format: biochemical
Settings: recombinant 17βHSD10 enzyme assay; for Hill Slope / Max. Fit / Min. Fit: curve fit
Protocol: Cell pellets of E. coli BL21-CodonPlus cells containing Histev-17β-HSD10 protein were re-suspended for 30 min, 4° C., in lysis buffer (20 mM NaH2PO4, 30 mM imidazole, 500 mM NaCl, 10% (v/v) glycerol, pH 7.5) with the addition of complete ethylenediaminetetraacetic acid (EDTA)-free protease inhibitor tablets (Roche), lysozyme (1 mg/mL), deoxyribonuclease (DNase) (20 μg/mL) and Triton X-100 (0.1% (v/v)). Cells were lysed by passage through a cell disruptor at 30 kPSI (Constant Systems Ltd) and the lysate was cleared by centrifugation (Sorvall Evolution RC, rotor S5-34 55-34 angle, 20500 rpm, 30 min, 4° C.). Cleared lysate was filtered (0.45 μm membrane; Whatman) then applied to a Ni-nitrilotriacetic acid (NTA) (GE Healthcare) column pre-washed with lysis buffer and protein eluted with 300 mM imidazole buffer (20 mM NaH2PO4, 300 mM imidazole, 500 mM NaCl, 10% (v/v) glycerol, pH 7.5). […] Protein digestion and dialysis was carried out at 4° C. for 16 h.
Complete digestion was firstly checked by sodium dodecyl sulfate-polyacrylamide gel electrophoresis (SDS-PAGE), then fully digested protein was passed over a second Ni-column and the flow-through, containing 17β-HSD10 protein, was concentrated using a Vivaspin column (10 kDa MWCO, GE Healthcare) to ˜7 mL before final purification using gel filtration to remove imidazole (Hi-Load 16/60 Superdex 75 prep grade column, GE Healthcare, flow rate 1.5 mL/min). Protein was eluted in gel filtration buffer (10 mM trisaminomethane (Tris-HCl), 150 mM NaCl, 10% glycerol, pH 7.5) and concentrated (Vivaspin column (10 kDa molecular weight cut off (MWCO), GE Healthcare)) to 10 mg/mL. Aliquots (10 μL) were taken and flash frozen in liquid nitrogen before final storage at −80° C.
The assay buffer used contains: 10 mM Tris. HCl (pH 7.4), 150 mM NaCl, 1 mM DTT, 0.005% Tween (polysorbate 20) and 0.01% bovine serum albumin (BSA). As indicated for some experiments the assay buffer was supplemented with 100 units/ml bovine liver catalase. All experiments were conducted in clear bottom 384-well or 1536-well low volume microplates (Corning) with a final assay volume of 20 μL and the reaction progress was monitored by oxidation of NADH as determined by reduction in absorbance at 340 nm read on the EnVision plate reader (PerkinElmer).
For primary screening an endpoint assay format was adopted in which an Echo acoustic liquid dispenser (Labcyte) was used to transfer 20 nL of either reference standard, dimethylsulfoxide (DMSO) control ([…] final assay concentration (FAC)) or test compounds (10 μM FAC) to the assay plate. 10 μL of 17β-HSD10 enzyme in assay buffer (2.5 nM, FAC) was then added to the plates using the Preddator liquid handling robot (Redd and Whyte) and plates were incubated at room temperature for 15 minutes. 10 μL of substrate mixture (100 μM acetoacetyl-CoA and 100 μM NADH, FAC) was added with the Preddator. To start the reaction and the plates were left to incubate for 35 minutes at room temperature before the absorbance at 340 nm was read on the EnVision plate reader (PerkinElmer). For kinetic assay format and dose response follow up experiments the same protocol was adopted but the absorbance at 340 nm was monitored constantly for 45 minutes from immediately after the reaction was started.

Row | Structure (SMILES) | EC50 | Max. Effect (%) | Hill Slope | Max. Fit | Min. Fit
1 | COc1cccc(-c2ccccc2[C@@H]2CCCN2C(=O)c2[nH]ncc2Cl)c1 (racemic) [ESC1002626] | 457 nM | 95% | 1.6 | 91 | −1
2 | CC(C)CN(C(=O)c1ccccc1F)c1cccc(NCc2c[nH]c(C(C)C)n2)c1 [ESC1002632] | > 20000 nM | 18% |  |  | 
3 | COc1cc(OC)cc(-c2ccccc2[C@@H]2CCCN2C(=O)c2sccc2Cl)c1 (racemic) [ESC1002662] | 603 nM | 92% | 1.2 | 92 | −1
4 | Cc1ccccc1C(=O)N(CC(C)C)c1cccc(N(C)Cc2c[nH]cn2)c1 [ESC1002491, N-[3-[1H-imidazol-4-ylmethyl(methyl)amino]phenyl]-N-isobutyl-2-methyl-benzamide] | 1170 nM | 96% | 1 | 102 | 2
5 | O=C(c1cocn1)N1CCC[C@H]1c1ccccc1 [S1−T10, 4-{[(2S)-2-phenylpyrrolidin-1-yl]carbonyl}-1,3-oxazole] | > 20000 nM | 20.5% |  |  | 
6 | COc1cccc(-c2ccccc2[C@@H]2CCCN2C(=O)c2nccn2C)c1 (racemic) [ESC1002661] | > 20000 nM | 7% |  |  | 
7 | COc1cc(-c2ccccc2[C@@H]2CCCN2C(=O)c2sccc2Cl)ccc1C (racemic) [ESC1002700] | 398 nM | 93% | 1.4 | 92 | −2
8 | COc1ccc(C(=O)N(CC(C)C)c2cccc(N(C)Cc3c[nH]cn3)c2)c(F)c1 [ESC1002576] | 245 nM | 98% | 1.1 | 97 | −3
9 | COc1cccc(-c2ccccc2[C@@H]2CCCN2C(=O)c2cocn2)c1 (racemic) [ESC1002598] | > 20000 nM | 50% |  |  | 
10 | CNC(=O)CNc1cccc(N(CC(C)C)C(=O)c2ccccc2F)c1 [ESC1002573] | > 20000 nM | 4% |  |  | 
11 | Cc1ccc(C(=O)Nc2cccc(N(C)Cc3cnc[nH]3)c2)cc1 [ESC1002054, N-[3-[1H-imidazol-5-ylmethyl(methyl)amino]phenyl]-4-methyl-benzamide] | > 20000 nM | 3% |  |  | 
12 | Cc1ccc(C(=O)N(c2cccc(N(C)Cc3cnc[nH]3)c2)C(C)C)cc1 [ESC1002080, N-[3-[1H-imidazol-5-ylmethyl(methyl)amino]phenyl]-N-isopropyl-4-methyl-benzamide] | 1000 nM | 96% | 0.9 | 102 | 0
13 | O=C(c1[nH]ncc1Cl)N1CCC[C@H]1c1ccccc1 [S1−T14, 4-chloro-5-{[(2S)-2-phenylpyrrolidin-1-yl]carbonyl}-1H-pyrazole] | > 20000 nM | 20.8% |  |  | 
14 | CC(C)CN(C(=O)c1ccccc1F)c1cccc(N(CCO)Cc2c[nH]cn2)c1 [ESC1002723] | 5130 nM | 81% | 1.1 | 94 | 0
15 | COc1cccc(-c2ccccc2[C@@H]2CCCN2C(=O)c2nc[nH]n2)c1 (racemic) [ESC1002599] | > 20000 nM | 10% |  |  | 
16 | Cc1cn[nH]c1C(=O)N1CCC[C@H]1c1ccccc1 [S1−T1, 4-methyl-5-{[(2S)-2-phenylpyrrolidin-1-yl]carbonyl}-1H-pyrazole] | > 20000 nM | 26.5% |  |  | 
17 | CC(C)CN(C(=O)c1ccccc1F)c1cccc(N(C)Cc2c[nH]c(C3CC3)n2)c1 [ESC1002674] | 8320 nM | 59% | 1.2 | 80 | −5

Continued, values first:

Row | EC50 | Max. Effect (%) | Hill Slope | Max. Fit | Min. Fit | Structure (SMILES)
18 | > 20000 nM | 4% |  |  |  | COc1cccc(-c2ccccc2[C@H]2CCCN2C(=O)c2sc(C)nc2C)c1 [ESC1002427]
19 | 51.3 nM | 100% | 1.2 | 96 | −1 | O=C(c1sccc1Cl)N1CCC[C@H]1c1ccccc1-c1cc(O)cc(F)c1 (single isomer, unassigned) [ESC1002801]
20 | 11200 nM | 65% | 0.98 | 100 | 2 | CNC(=O)CN(C)c1cccc(N(CC(C)C)C(=O)c2ccccc2F)c1 [ESC1002572]
21 | 263 nM | 97% | 1.2 | 96 | 5 | COc1cc(-c2ccccc2[C@@H]2CCCN2C(=O)c2sccc2Cl)ccc1F (racemic) [ESC1002699]
22 | 575 nM | 93% | 1.1 | 95 | −8 | COc1ccc(-c2ccccc2[C@@H]2CCCN2C(=O)c2sccc2Cl)cc1OC (racemic) [ESC1002663]
23 | 302 nM | 97% | 1.2 | 97 | 1 | O=C(c1sccc1Cl)N1CCC[C@H]1c1ccccc1-c1ccc(O)cc1 (racemic) [ESC1002696]
24 | 51.3 nM | 99% | 1.2 | 97 | 0 | O=C(c1sccc1Cl)N1CCC[C@H]1c1ccccc1-c1ccc(F)c(O)c1 (single isomer, unassigned) [ESC1002838]
25 | 3980 nM | 85% | 1.3 | 93 | 2 | CCCn1c(C(N)=O)cc2cc(-c3cn[nH]c3)ccc21 [ESC1002019]
26 | > 20000 nM | 26.6% |  |  |  | O=C(c1ncco1)N1CCC[C@H]1c1ccccc1 [S1−T9, 2-{[(2S)-2-phenylpyrrolidin-1-yl]carbonyl}-1,3-oxazole]
27 | > 20000 nM | 8% |  |  |  | COc1cccc(-c2ccccc2[C@H]2CCCN2C(=O)Cc2ccccc2)c1 [ESC1002506]
28 | > 20000 nM | 13% |  |  |  | CC(C)CN(C(=O)c1ccccc1F)c1cccc(NCC(N)=O)c1 [ESC1002571]
29 | 380 nM | 96% | 2.3 | 93 | 9 | Cc1ccsc1C(=O)N1CCC[C@@H]1c1ccccc1-c1ccc(F)cc1 [ESC1002423]
30 | 2690 nM | 86% | 1.2 | 91 | −4 | CC(C)CN(C(=O)c1ccccc1F)c1cccc(N(C)Cc2nc[nH]n2)c1 [ESC1002770]
31 | > 20000 nM | 39% |  |  |  | CC(C)CN(C(=O)c1ccccc1F)c1cccc(N(C)CC#N)c1 [ESC1002762]
32 | > 20000 nM | 17% |  |  |  | COc1cccc(-c2ccccc2[C@H]2CCCN2C(=O)c2sccc2OC)c1 [ESC1002433]
33 | 3470 nM | 87% | 0.79 | 110 | −6 | Cc1ccsc1C(=O)N1CCC[C@@H]1c1ccccc1-c1cnn(CCO)c1 [ESC1002463]
